Measured values taken from patent US20220106271A1, “2-BROMO-6-ALKOXYPHENYL-SUBSTITUTED PYRROLIN-2-ONES AND THEIR USE AS HERBICIDES” (Bayer Aktiengesellschaft, priority 2018, published 2022).

How the values were obtained:
Type in all cases: in vivo
Abutylon threophrasti = assay: Pre-emergence herbicidal effect, greenhouse pot test; details: scored visually after 3 weeks, dosage 320 g/ha printed only in the upper half of Table 2
Description: (§1) 1. Pre-emergence herbicidal effect and crop plant compatibility Seeds of monocotyledonous and dicotyledonous weed plants and crop plants are laid out in sandy loam soil in wood-fibre pots and covered with soil. The compounds of the invention, formulated in the form of wettable powders (WP) or as emulsion concentrates (EC), are then applied to the surface of the covering soil as aqueous suspension or emulsion at a water application rate equating to 600 to 800 L/ha with addition of 0.2% wetting agent.
(§2) After the treatment, the pots are placed in a greenhouse and kept under good growth conditions for the trial plants. The damage to the test plants is scored visually after a test period of 3 weeks by comparison with untreated controls (herbicidal activity in percent (%): 100% activity=the plants have died, 0% activity=like control plants).

Lolium rigidum [1] = assay: as above; details: 320 g/ha, scored visually after 3 weeks, 100% = plants have died, 0% = like control plants
Description: as §1, §2

Setaria viridis [2] = assay: as above; details: 320 g/ha, scored visually after 3 weeks, 100% = plants have died, 0% = like control plants
Description: as §1, §2

Veronica persica = assay: as above; details: scored visually after 3 weeks, dosage 320 g/ha printed only in the upper half of Table 2
Description: as §1, §2

Cyperus esculentus = assay: as above; details: 320 g/ha, scored visually after 3 weeks, 100% = plants have died, 0% = like control plants
Description: as §1, §2

Alopecurus myosuroides [3] = assay: as above; details: 320 g/ha, scored visually after 3 weeks, 100% = plants have died, 0% = like control plants
Description: as §1, §2

Hordeum murinum [4] = assay: as above; details: scored visually after 3 weeks, dosage 320 g/ha printed only in the upper half of Table 2
Description: as §1, §2

Viola tricolor = assay: as above; details: scored visually after 3 weeks, dosage 320 g/ha printed only in the upper half of Table 2
Description: as §1, §2

Echinochloa crus-galli [5] = assay: as above; details: 320 g/ha, scored visually after 3 weeks, 100% = plants have died, 0% = like control plants
Description: as §1, §2

Amaranthus retroflexus = assay: as above; details: scored visually after 3 weeks, dosage 320 g/ha printed only in the upper half of Table 2
Description: as §1, §2

Stellaria media = assay: as above; details: scored visually after 3 weeks, dosage 320 g/ha printed only in the upper half of Table 2
Description: as §1, §2

Polygonum convolvulus = assay: as above; details: scored visually after 3 weeks, dosage 320 g/ha printed only in the upper half of Table 2
Description: as §1, §2

Lolium rigidum [6] = assay: Post-emergence herbicidal effect, greenhouse pot test; details: 80 g/ha, post-emergence at one-leaf stage, assessed visually after about 3 weeks; 100% = plants have died, 0% = like control plants
Procedure: (§3) Seeds of monocotyledonous and dicotyledonous weed and crop plants are laid out in sandy loam soil in wood-fibre pots, covered with soil and cultivated in a greenhouse under good growth conditions. 2 to 3 weeks after sowing, the test plants are treated at the one-leaf stage. The compounds of the invention, formulated in the form of wettable powders (WP) or as emulsion concentrates (EC), are then sprayed onto the green parts of the plants as aqueous suspension or emulsion at a water application rate equating to 600 to 800 L/ha with addition of 0.2% wetting agent. After the test plants have been left to stand in the greenhouse under optimal growth conditions for about 3 weeks, the action of the preparations is assessed visually in comparison to untreated controls (herbicidal action in percent (%): 100% activity=the plants have died, 0% activity=like control plants).

Setaria viridis [7] = assay: as above; details: 80 g/ha, post-emergence at one-leaf stage, assessed visually after about 3 weeks; 100% = plants have died, 0% = like control plants
Procedure: as §3

Avena fatua [8] = assay: as above; details: 80 g/ha, post-emergence at one-leaf stage, assessed visually after about 3 weeks; 100% = plants have died, 0% = like control plants
Procedure: as §3

Alopecurus myosuroides [9] = assay: as above; details: 80 g/ha, post-emergence at one-leaf stage, assessed visually after about 3 weeks; 100% = plants have died, 0% = like control plants
Procedure: as §3

Hordeum murinum [10] = assay: as above; details: 80 g/ha, post-emergence at one-leaf stage, assessed visually after about 3 weeks; 100% = plants have died, 0% = like control plants
Procedure: as §3

Echinochloa crus-galli [11] = assay: as above; details: 80 g/ha, post-emergence at one-leaf stage, assessed visually after about 3 weeks; 100% = plants have died, 0% = like control plants
Procedure: as §3

Avena fatua [12] = assay: Pre-emergence herbicidal effect, greenhouse pot test; details: 320 g/ha, scored visually after 3 weeks, 100% = plants have died, 0% = like control plants
Description: as §1, §2

Row | SMILES | Pre-emergence action ABUTH (herbicidal activity in percent) (Abutylon threophrasti) | Pre-emergence action LOLRI (herbicidal activity in percent) (Lolium rigidum [1]) | Pre-emergence action SETVI (herbicidal activity in percent) (Setaria viridis [2]) | Pre-emergence action VERPE (herbicidal activity in percent) (Veronica persica) | Pre-emergence action CYPES (herbicidal activity in percent) (Cyperus esculentus) | Pre-emergence action ALOMY (herbicidal activity in percent) (Alopecurus myosuroides [3]) | Pre-emergence action HORMU (herbicidal activity in percent) (Hordeum murinum [4]) | Pre-emergence action VIOTR (herbicidal activity in percent) (Viola tricolor) | Pre-emergence action ECHCG (herbicidal activity in percent) (Echinochloa crus-galli [5]) | Pre-emergence action AMARE (herbicidal activity in percent) (Amaranthus retroflexus) | Pre-emergence action STEME (herbicidal activity in percent) (Stellaria media) | Pre-emergence action POLCO (herbicidal activity in percent) (Polygonum convolvulus) | Post-emergence action LOLRI (herbicidal action in percent) (Lolium rigidum [6]) | Post-emergence action SETVI (herbicidal action in percent) (Setaria viridis [7]) | Post-emergence action AVEFA (herbicidal action in percent) (Avena fatua [8]) | Post-emergence action ALOMY (herbicidal action in percent) (Alopecurus myosuroides [9]) | Post-emergence action HORMU (herbicidal action in percent) (Hordeum murinum [10]) | Post-emergence action ECHCG (herbicidal action in percent) (Echinochloa crus-galli [11]) | Pre-emergence action AVEFA (herbicidal activity in percent) (Avena fatua [12])
1 | CC#Cc1cc(Br)c(C2=C(O)C3(CCC(OC)CC3)NC2=O)c(OC)c1 (single isomer, unassigned) [Example 1.1, 3-[2-Bromo-6-methoxy-4-(prop-1-yn-1-yl)phenyl]-4-hydroxy-8-methoxy-1-azaspiro[4.5]dec-3-en-2-one] | 100% | 100% | 100% | 100% | 100% | 100% | 100% | 100% | 100% | 100% | 100% | 100% | 100% | 90% | 100% | 90% | 100% | 100% | –
2 | CC#Cc1cc(Br)c(C2=C(O)C3(CCC(OC)CC3)NC2=O)c(OC)c1 (single isomer, unassigned) [Example 1.2] | 100% | 100% | 100% | 100% | 100% | 100% | 100% | 100% | 100% | 100% | 100% | 100% | 90% | 90% | 90% | 90% | 100% | 100% | 100%
3 | CC#Cc1cc(Br)c(C2=C(OC(=O)OCC)C3(CCC(OC)CC3)NC2=O)c(OC)c1 (stereo not drawn) [Example 1.3, 3-[2-Bromo-6-methoxy-4-(prop-1-yn-1-yl)phenyl]-8-methoxy-2-oxo-1-azaspiro[4.5]dec-3-en-4-yl ethyl carbonate] | 100% | 100% | 100% | 100% | 100% | 100% | 100% | 100% | 100% | 100% | 100% | 100% | 100% | 90% | 90% | 90% | 100% | 100% | 100%
4 | CC#Cc1cc(Br)c(C2=C(OC(=O)C(C)C)C3(CCC(OC)CC3)NC2=O)c(OC)c1 (stereo not drawn) [Example 1.4] | 100% | 100% | 100% | 100% | 100% | 100% | 100% | 100% | 100% | 100% | 100% | 100% | 100% | 90% | 90% | 90% | 100% | 90% | 100%
